Measured values: US5834487A, “Inhibition of 26S and 20S proteasome by indanones” (CV Therapeutics, priority 1996, dated 1998)
≈ marks a conversion by molar mass, not a printed value.

target: T1, 20S catalytic subunit of the proteasome (multicatalytic proteinase complex) (Bos taurus, UniProt Q32KL2); test: 20S proteasome chymotryptic activity, fluorogenic peptide cleavage; assay type: biochemical, bovine; settings: 50 μM succinyl-leu-leu-val-tyr-7-amino-4-methyl coumarin, 15 minutes at 37° C, pH7.5
T1 construct: was purified to homogeneity from bovine brain according to published methods; from tissue; host or cells: bovine brain
Procedure: Compounds of this invention prepared according to the method of Example 1 were tested as follows. The 20S catalytic subunit of the proteasome (also known as the multicatalytic proteinase complex) was purified to homogeneity from bovine brain according to published methods (Wilk S. and Orlowski, M, 40 842 J. Neurochem (1983)). The chymotryptic activity of the complex is measured by the increase in fluorescence following cleavage of the substrate peptide succinyl-leucine-leucine-valine-tyrosine-7-amino-4-methyl coumarin. The standard in vitro assay consists of 2 μg 20S proteasome, 0.1-100 μg/ml proteasome inhibitor in 200 μl 50 mM HEPES, containing 0.1% sodium dodecyl sulphate, pH7.5. The proteolytic reaction is initiated by the addition of 50 μM fluorogenic peptide substrate and allowed to progress for 15 minutes at 37° C. The reaction is terminated by the addition of 100 μl of 100 mM acetate buffer, pH4.0. The rate of proteolysis is directly proportional to the amount of liberated aminomethylcoumarin which is measured by fluorescent spectroscopy (EX 370 nm, EM 430 nm).

Row | IC50 | Compound
1 | > 10 mg/L | COc1ccc2c(c1)C(CC(=O)NC(CC(C)C)C(=O)NC(CC(C)C)C(=O)N1CCc3ccccc3C1)CC2=O (mixture of isomers) [Compound 191]
2 | > 10 mg/L | COc1ccc2c(c1)C(CC(=O)NC(C)C(=O)NC(CC(C)C)C(N)=O)CC2=O (mixture of isomers) [Compound 59]
3 | > 10 mg/L | COc1ccc2c(c1)C(CC(=O)NC(CC(C)C)C(=O)NC(Cc1c[nH]cn1)C(N)=O)CC2=O (mixture of isomers) [Compound 4]
4 | > 10 mg/L | COc1ccc2c(c1)C(CC(=O)NC(CC(C)C)C(=O)NC(CC(C)C)C(N)=O)CC2=O (mixture of isomers) [Compound 6]
5 | > 10 mg/L | COc1ccc2c(c1)C(CC(=O)NC(CCC(=O)O)C(=O)NC(CC(C)C)C(N)=O)CC2=O (mixture of isomers) [Compound 97]
6 | > 10 mg/L | COc1ccc2c(c1)C(CC(=O)N[C@@H](CC(C)C)C(=O)N[C@H](Cc1ccccc1)C(=O)NCC(N)=O)CC2=O (stereo partly drawn) [Compound 88]
7 | 10 mg/L | COc1ccc2c(c1)C(CC(=O)NC(CC(N)=O)C(=O)NC(CC(C)C)C(N)=O)CC2=O (mixture of isomers) [Compound 95]
8 | > 10 mg/L | COc1ccc2c(c1)C(CC(=O)N1CCc3ccccc31)CC2=O (racemic) [Compound 160]
9 | > 10 mg/L | COc1ccc2c(c1)C(CC(=O)NC(Cc1ccccc1)C(N)=O)CC2=O (mixture of isomers) [Compound 12]
10 | 10 mg/L | COc1ccc2c(c1)C(CC(=O)NC(Cc1ccccc1)C(=O)NC(CC(C)C)C(N)=O)CC2=O (mixture of isomers) [Compound 27]
11 | > 10 mg/L | CCCCC(NC(=O)CC1CC(=O)c2ccc(OC)cc21)C(=O)NC(CC(C)C)C(N)=O (mixture of isomers) [Compound 23]
12 | > 10 mg/L | COc1ccc2c(c1)C(CC(=O)NC(CC(C)C)C(=O)N1CCCC1C(=O)NCC(N)=O)CC2=O (mixture of isomers) [Compound 92]
13 | > 10 mg/L | COc1ccc2c(c1)C(CC(=O)NC(CCC(N)=O)C(=O)NC(CC(C)C)C(N)=O)CC2=O (mixture of isomers) [Compound 98]
14 | > 10 mg/L | COc1ccc2c(c1)C(CC(=O)NC(C(=O)NC(CC(C)C)C(N)=O)c1ccccc1)CC2=O (mixture of isomers) [Compound 37]
15 | > 10 mg/L | COc1ccc2c(c1)C(CC(=O)NC(CC(C)C)C(N)=O)CC2=O (mixture of isomers) [Compound 3]
16 | > 10 mg/L | COc1ccc2c(c1)C(CC(=O)NC(CC(C)C)C(=O)NC(Cc1ccccc1)C(N)=O)CC2=O (mixture of isomers) [Compound 56]
17 | > 10 mg/L | COc1ccc2c(c1)C(CC(=O)N1Cc3ccccc3CC1C(=O)NC(CC(C)C)C(N)=O)CC2=O (mixture of isomers) [Compound 60]
18 | 10 mg/L | COc1ccc2c(c1)C(CC(=O)N1CCCC1C(=O)NC(CC(C)C)C(N)=O)CC2=O (mixture of isomers) [Compound 31]
19 | > 10 mg/L | COc1ccc2c(c1)C(CC(=O)NC(CC(C)C)C(=O)NC(CC(C)C)C(N)=O)CC2=O (mixture of isomers) [Compound 5]
20 | 10 mg/L (≈ 19.1 µM) | COc1ccc2c(c1)C(CC(=O)N[C@@H](CC(C)C)C(=O)N[C@@H](C(=O)NCC(N)=O)c1ccccc1)CC2=O (stereo partly drawn) [Compound 91]
21 | > 10 mg/L | COc1ccc2c(c1)C(CC(=O)N1Cc3ccccc3CC1C(=O)NC(CC(C)C)C(N)=O)CC2=O (mixture of isomers) [Compound 26]
22 | > 10 mg/L | COc1ccc2c(c1)C(CC(=O)NC(CC(C)C)C(=O)NCc1ccccc1)CC2=O (mixture of isomers) [Compound 198]
23 | > 10 mg/L | CCCCC(NC(=O)CC1CC(=O)c2ccc(OC)cc21)C(=O)NC(CC(C)C)C(N)=O (mixture of isomers) [Compound 15]

Continued, compound first:

Row | Compound | IC50
24 | COc1ccc2c(c1)C(CC(=O)NC(CC(C)C)C(=O)NC(CC(C)C)C(=O)NCC(N)=O)CC2=O (mixture of isomers) [Compound 21] | 0.1 mg/L
25 | COc1ccc2c(c1)C(CC(=O)N1CCCC1CO)CC2=O (mixture of isomers) [Compound 164] | > 50 mg/L
26 | CCCCC(NC(=O)C(CC(C)C)NC(=O)CC1CC(=O)c2ccc(OC)cc21)C(N)=O (mixture of isomers) [Compound 134] | > 10 mg/L
27 | COc1ccc2c(c1)C(CC(=O)N(CCO)Cc1ccccc1)CC2=O (stereo not drawn) [Compound 76] | > 10 mg/L
28 | COc1ccc2c(c1)C(CC(=O)NC(CC(C)C)C(=O)NC(CC1CCCCC1)C(N)=O)CC2=O (mixture of isomers) [Compound 132] | > 10 mg/L
29 | CCCCC(NC(=O)CC1CC(=O)c2ccc(OC)cc21)C(N)=O (mixture of isomers) [Compound 8] | > 10 mg/L
30 | COc1ccc2c(c1)C(CC(=O)Nc1ccc(Cl)cn1)CC2=O (racemic) [Compound 156] | > 10 mg/L
31 | COc1ccc2c(c1)C(CC(=O)N1CCC(C)CC1)CC2=O (stereo not drawn) [Compound 108] | > 10 mg/L
32 | COc1ccc2c(c1)C(CC(=O)NC(CC(C)C)C(=O)NC(CC(C)C)C(=O)NC(C(N)=O)C(C)C)CC2=O (mixture of isomers) [Compound 124] | > 10 mg/L
33 | COc1ccc2c(c1)C(CC(=O)NCC(O)CO)CC2=O (stereo not drawn) [Compound 111] | > 10 mg/L
34 | COc1ccc2c(c1)C(CC(=O)N1CCC(O)(c3ccccc3)CC1)CC2=O (stereo not drawn) [Compound 151] | > 10 mg/L
35 | COc1ccc2c(c1)C(CC(=O)NC1CCc3ccccc31)CC2=O (stereo not drawn) [Compound 83] | > 10 mg/L
36 | COc1ccc2c(c1)C(CC(=O)NC(C(=O)NC(C(N)=O)C(C)C)C(C)C)CC2=O (mixture of isomers) [Compound 34] | > 10 mg/L
37 | COc1ccc2c(c1)C(CC(=O)NC(CC(C)C)C(=O)NC(CC(C)C)C(=O)NCCc1ccccc1)CC2=O (mixture of isomers) [Compound 185] | > 10 mg/L
38 | COc1ccc2c(c1)C(CC(=O)N(c1ccc(O)cc1)c1ccc3ccccc3c1)CC2=O (stereo not drawn) [Compound 144] | > 10 mg/L
39 | COc1ccc2c(c1)C(CC(=O)NC(CC(C)C)C(=O)NC(CC(C)C)C(=O)NCC(N)=O)CC2=O (mixture of isomers) [Compound 19] | > 10 mg/L
40 | COCCNC(=O)CC1CC(=O)c2ccc(OC)cc21 (stereo not drawn) [Compound 117] | > 10 mg/L
41 | COc1ccc2c(c1)C(CC(=O)NC(CC(C)C)C(=O)NC(CCCCN)C(N)=O)CC2=O (mixture of isomers) [Compound 138] | > 10 mg/L
42 | COc1ccc2c(c1)C(CC(=O)NCCCc1ccccc1)CC2=O (stereo not drawn) [Compound 66] | > 10 mg/L

Row | Compound | IC50
43 | COc1ccc2c(c1)C(CC(=O)N1CCCC1)CC2=O (stereo not drawn) [Compound 64] | > 10 mg/L
44 | COc1ccc(NC(=O)CC2CC(=O)c3ccc(OC)cc32)cc1 (racemic) [Compound 162] | > 50 mg/L
45 | COCCN(CCOC)C(=O)CC1CC(=O)c2ccc(OC)cc21 (stereo not drawn) [Compound 79] | > 10 mg/L
46 | COc1ccc2c(c1)C(CC(=O)NC(C(=O)NC(CC(C)C)C(=O)NCC(N)=O)C(C)C)CC2=O (mixture of isomers) [Compound 47] | > 10 mg/L
47 | COc1ccc2c(c1)C(CC(=O)NC(CC(C)C)C(=O)NC(CC(C)C)C(=O)NC(C)C(N)=O)CC2=O (mixture of isomers) [Compound 126] | > 10 mg/L
48 | COc1ccc2c(c1)C(CC(=O)N1CCOCC1)CC2=O (stereo not drawn) [Compound 63] | > 10 mg/L
49 | COc1ccc2c(c1)C(CC(=O)NC(C)(C)CO)CC2=O (stereo not drawn) [Compound 113] | > 10 mg/L
50 | COc1ccc2c(c1)C(CC(=O)NC(CC(C)C)C(=O)NC(CC(C)C)C(=O)O)CC2=O (mixture of isomers) [Compound 171] | > 10 mg/L
51 | COc1ccc2c(c1)C(CC(=O)NC(CC(C)C)C(=O)NC(CC(C)C)C(=O)NCC1CCCCC1)CC2=O (mixture of isomers) [Compound 188] | > 10 mg/L
52 | COc1ccc2c(c1)C(CC(=O)NC(CC(C)C)C(=O)NC(CC(C)C)C(=O)N1CCCCC1)CC2=O (mixture of isomers) [Compound 175] | > 10 mg/L
53 | COc1ccc2c(c1)C(CC(=O)NC(CC(C)C)C(=O)NC(CC(C)C)C(=O)NC(Cc1ccccc1)C(N)=O)CC2=O (mixture of isomers) [Compound 128] | > 10 mg/L
54 | COc1ccc2c(c1)C(CC(=O)NC(CC(C)C)C(=O)NC(CC(C)C)C(=O)N(C)Cc1ccccc1)CC2=O (mixture of isomers) [Compound 179] | > 10 mg/L
55 | COc1ccc2c(c1)C(CC(=O)NC(CC(C)C)C(=O)NC(CC(C)C)C(=O)N1CCCC1)CC2=O (mixture of isomers) [Compound 176] | > 10 mg/L
56 | COc1ccc2c(c1)C(CC(=O)NCCCc1ccccc1)CC2=O (stereo not drawn) [Compound 120] | > 10 mg/L
57 | COc1ccc2c(c1)C(CC(=O)Nc1ccccc1)CC2=O (racemic) [Compound 168] | > 50 mg/L
58 | COc1ccc2c(c1)C(CC(=O)NC(CC(C)C)C(=O)NC(CC(C)C)C(=O)Nc1ccccc1)CC2=O (mixture of isomers) [Compound 184] | > 10 mg/L
59 | CCN(CC)C(=O)CC1CC(=O)c2ccc(OC)cc21 (stereo not drawn) [Compound 68] | > 10 mg/L
60 | COc1ccc2c(c1)C(CC(=O)NCCc1ccccc1)CC2=O (stereo not drawn) [Compound 65] | > 10 mg/L
